Data on 1 sequence can be found in publication PMC11947619, “Molecular mechanism of Mad2 conformational conversion promoted by the Mad2‐interaction motif of Cdc20” (Protein Science : A Publication of the Protein Society, 2025).

The experiment addresses T1, O‐Mad2^LL (Homo sapiens, UniProt Q13257, A115G/DEL109-114/P116S/R117G).
T1 construct: His6-DoubleStrep-TEV (N); made in house
The experiment in a line: Time-resolved NMR: conversion / binding with O-Mad2^LL (loop-less). Type of experiment: biochemical. To be noted: two-fold molar excess peptide, 25°C. The protocol: FIGURE 5 The dynamic β5‐αC loop and C‐terminal residues in O‐Mad2 modulate Mad2 conversion. The O‐ to C‐Mad2 conversion is slowed when the highly dynamic β5‐αC loop is truncated (O‐Mad2^LL) and eliminated in the absence of the C‐terminal ten residues (O‐Mad2^∆C10). Using the side chain resonances of Trp75 and Trp167 as reporters, Mad2 conversion was traced in a 24 h time course at 25°C. Cdc20^MIM‐111‐138 peptides were added at two‐fold molar excess to Mad2 (100 μM). Severe line broadening was observed during the conversion of O‐Mad2^LL, most likely due to dimerization of O‐Mad2^LL with the newly converted C‐Mad2^LL. NMR data for O‐Mad2^R133A with Cdc20^MIM‐111‐138 shown for comparison are from Fischer et al. ([2022]).
The cloning of human wild‐type Mad2 and the mutant Mad2^R133A by the USER® method (NEB) into the pRSFDuet‐1 vector (71341‐3, Sigma‐Aldrich) with a His6‐DoubleStrep‐TEV tag at its N‐terminus was described previously (Fischer et al., [2022]). For this study, Mad2 mutants were generated as follows. The Mad2^LL expression construct was generated from the wild‐type Mad2 expression vector (Fischer et al., [2022]) by replacing residues 109–117 (TAKDDSAPR) with GSG. Mad2^ΔC10 and Mad2^Δβ7/β8 were modified from wild‐type Mad2 expression construct by deleting residues 196–205 and 166–205, respectively. Mad2^LL/R133A was modified by substituting Ala for Arg133 from the Mad2^LL expression construct. Mad2^LL/ΔC10 was modified from Mad2^LL by deleting residues 196–205. Mad2^L13A/R133A was generated from the Mad2^R133A mutant. Site‐directed mutagenesis of Mad2 was completed using the QuikChangeTM Lightning Site‐Directed Mutagenesis Kit (Agilent) developed by Stratagene Inc. (La Jolla, CA).
All peptides were synthesized by Cambridge Research Biochemicals, UK. Peptides were dialyzed into 20 mM HEPES, pH 7.0, 100 mM NaCl, and 1 mM TCEP for NMR experiments. […]
Mad2LL (grey), Mad2∆C10 (green) and Mad2LL/∆C10 (purple). […] 15N{1H}‐ heteronuclear NOE were measured at 298 K. Regions that are highly dynamic are highlighted in yellow. e. […]

T1 sequence (Q13257 with tags, fused parts or gaps DEL109-114/A115G/P116S/R117G): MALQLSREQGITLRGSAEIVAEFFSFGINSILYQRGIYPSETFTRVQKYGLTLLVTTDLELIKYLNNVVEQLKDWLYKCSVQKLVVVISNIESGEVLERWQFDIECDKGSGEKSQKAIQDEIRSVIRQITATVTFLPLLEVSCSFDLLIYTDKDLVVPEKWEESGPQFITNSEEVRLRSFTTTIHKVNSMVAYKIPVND

For “EHQKAWALNLNGFDVEEAKILRLSGKPQ [Cdc20^MIM‐111‐138, Cdc20^MIM peptide spanning Cdc20 residues 111–138]”, the “binding to Mad2^LL, early spectra” value (HSQC, spectra collected within 15 min) was “no binding”. Further, the “slowing of conversion relative to O-Mad2^R133A with Cdc20^MIM-111-138” value (O-Mad2^LL 100 μM) came out at 8 times. Further, under “O-Mad2^LL 100 μM, Trp75/Trp167 reporters”, the “time for conversion of O-Mad2^LL to C-Mad2^LL:Cdc20^MIM” value is reported as ~ 250 min.
